Laboratory results taken from ChEMBL document CHEMBL4251572, “Novel aminopyrimidinyl benzimidazoles as potentially antimicrobial agents: Design, synthesis and biological evaluation” (Eur J Med Chem, 2018).
Values after ≈ are worked out from the molar mass of the structure shown. Active and inactive are the calls of the source. No cut-off for these calls is given here.

Tests used:
[1] = test system: Cyberlindnera jadinii; assay: Antifungal against Candida utilis after 24 hrs by two fold serial dilution method; format: functional; conditions: Williopsis jadinii
[2] = test system: Staphylococcus aureus; assay: Antibacterial activity against methicillin-resistant Staphylococcus aureus N315 after 16 serial passages by two-fold serial dilution assay; format: functional, organism-based
[3] = molecular target: T1, Albumin (Homo sapiens, UniProt P02768); assay: Binding affinity to HSA at 0.2 to 1 10'5 mol/L by synchronous fluorescence […]; format: ADME; conditions: isolated protein
[4] = test system: Pseudomonas aeruginosa; assay: Antibacterial activity against Pseudomonas aeruginosa incubated for 24 hrs followed by plating onto tryptic soy agar medium and measured after 24 hrs; format: functional
[5] = test system: L02; assay: Cytotoxicity against human LO2 cells at 100 to 500 ug/ml after 48 hrs by MTT assay; format: cell-based; conditions: l02, 48 h
[6] = test system: Pseudomonas aeruginosa; assay: Antibacterial activity against Pseudomonas aeruginosa after 24 hrs by micro broth dilution assay; format: functional
[7] = test system: Escherichia coli; assay: Antibacterial activity against Escherichia coli DH52 after 24 hrs by micro broth dilution assay; format: functional; conditions: DH52, 24 h
[8] = test system: Pichia norvegensis; assay: Antifungal against Candida mycoderma after 24 hrs by two fold serial dilution method; format: functional
[9] = molecular target: T1, Albumin; assay: Binding affinity to HSA assessed as Stern-Volmer quenching constant at pH 7.4 at 303 K by fluorescence spectroscopic analysis; format: ADME; conditions: isolated protein
[10] = molecular target: T1, Albumin; assay: Binding affinity to HSA assessed as Stern-Volmer quenching constant at pH 7.4 at 284 K by fluorescence spectroscopic analysis; format: ADME; conditions: isolated protein
[11] = test system: Salmonella typhi; assay: Antibacterial activity against Bacillus typhi after 24 hrs by micro broth dilution assay; format: functional, Salmonella enterica subsp. enterica serovar Typhi; conditions: Salmonella enterica
[12] = test system: Escherichia coli; assay: Antibacterial activity against Escherichia coli JM109 after 24 hrs by micro broth dilution assay; format: functional; conditions: JM109, 24 h
[13] = test system: Saccharomyces cerevisiae; assay: Antifungal against Saccharomyces cerevisiae after 24 hrs by two fold serial dilution method; format: functional
[14] = test system: Bacillus; assay: Antibacterial activity against Bacillus proteus ATCC 13315 after 24 hrs by micro broth dilution assay; format: functional; conditions: ATCC 13315, 24 h
[15] = test system: Staphylococcus aureus; assay: Ratio of MBC for Staphylococcus aureus ATCC 25923 to MIC for Staphylococcus aureus ATCC 25923; format: functional
[16] = test system: Calf thymus DNA; assay: Binding affinity to calf thymus DNA by UV-vis absorption spectra analysis; format: nucleic-acid assay; conditions: Bos taurus
[17] = test system: Shigella dysenteriae; assay: Antibacterial activity against Shigella dysenteriae after 24 hrs by micro broth dilution assay; format: functional
[18] = test system: Staphylococcus aureus; assay: Antibacterial activity against Staphylococcus aureus ATCC 25923 incubated for 24 hrs followed by plating onto tryptic soy agar medium and measured after 24 hrs; format: functional; conditions: ATCC 25923, 24 h
[19] = test system: Staphylococcus aureus; assay: Antibacterial activity against methicillin-resistant Staphylococcus aureus N315 incubated for 24 hrs followed by plating onto tryptic soy agar medium and measured after 24 hrs; format: functional; conditions: N315, 24 h
[20] = test system: Candida albicans; assay: Antifungal against Candida albicans ATCC 76615 after 24 hrs by two fold serial dilution method; format: functional; conditions: ATCC 76615, 24 h
[21] = test system: HepG2; assay: Induction of ROS generation in human HepG2 cells at 6.25 to 50 uM by DCFH-DA staining based fluorescence microscopic analysis; format: cell-based; conditions: hepg2, 50 µM
[22] = test system: Bacillus subtilis; assay: Antibacterial activity against Bacillus subtilis after 24 hrs by micro broth dilution assay; format: functional
[23] = test system: Staphylococcus aureus; assay: Antibacterial activity against Staphylococcus aureus ATCC 25923 after 24 hrs by micro broth dilution assay; format: functional; conditions: ATCC 25923, 24 h
[24] = molecular target: T1, Albumin; assay: Binding affinity to HSA assessed as increase in absorption intensity by UV-vis absorption spectra analysis; format: ADME; conditions: isolated protein
[25] = molecular target: T1, Albumin; assay: Binding affinity to HSA assessed as Stern-Volmer quenching constant at pH 7.4 at 298 K by fluorescence spectroscopic analysis; format: ADME; conditions: isolated protein
[26] = test system: Staphylococcus aureus; assay: Antibacterial activity against methicillin-resistant Staphylococcus aureus N315 after 24 hrs by micro broth dilution assay; format: functional; conditions: N315, 24 h
[27] = test system: Calf thymus DNA; assay: Binding affinity to calf thymus DNA assessed as hypochromic effect by UV-vis absorption spectra analysis; format: nucleic-acid assay; conditions: Bos taurus
[28] = test system: Calf thymus DNA; assay: Binding affinity to calf thymus DNA assessed as Stern-Volmer quenching constant at 2 x 10^-5 mol/L at pH 7.4 at 298 K in presence of potassium iodide by fluorescence assay (reference value: 46.23 L/mol); format: nucleic-acid assay; conditions: Bos taurus
[29] = test system: Pseudomonas aeruginosa; assay: Ratio of MBC for Pseudomonas aeruginosa to MIC for Pseudomonas aeruginosa; format: functional
[30] = test system: Calf thymus DNA; assay: Competitive binding affinity to calf thymus DNA assessed as reduction in DNA_AO complex fluorescence intensity by acridine orange staining-based assay; format: nucleic-acid assay; conditions: Bos taurus
[31] = test system: Aspergillus flavus; assay: Antifungal against Aspergillus flavus after 24 hrs by two fold serial dilution method; format: functional
[32] = test system: Micrococcus luteus; assay: Antibacterial activity against Micrococcus luteus ATCC4698 after 24 hrs by micro broth dilution assay; format: functional; conditions: ATCC4698, 24 h

T1 sequence (P02768 whole entry): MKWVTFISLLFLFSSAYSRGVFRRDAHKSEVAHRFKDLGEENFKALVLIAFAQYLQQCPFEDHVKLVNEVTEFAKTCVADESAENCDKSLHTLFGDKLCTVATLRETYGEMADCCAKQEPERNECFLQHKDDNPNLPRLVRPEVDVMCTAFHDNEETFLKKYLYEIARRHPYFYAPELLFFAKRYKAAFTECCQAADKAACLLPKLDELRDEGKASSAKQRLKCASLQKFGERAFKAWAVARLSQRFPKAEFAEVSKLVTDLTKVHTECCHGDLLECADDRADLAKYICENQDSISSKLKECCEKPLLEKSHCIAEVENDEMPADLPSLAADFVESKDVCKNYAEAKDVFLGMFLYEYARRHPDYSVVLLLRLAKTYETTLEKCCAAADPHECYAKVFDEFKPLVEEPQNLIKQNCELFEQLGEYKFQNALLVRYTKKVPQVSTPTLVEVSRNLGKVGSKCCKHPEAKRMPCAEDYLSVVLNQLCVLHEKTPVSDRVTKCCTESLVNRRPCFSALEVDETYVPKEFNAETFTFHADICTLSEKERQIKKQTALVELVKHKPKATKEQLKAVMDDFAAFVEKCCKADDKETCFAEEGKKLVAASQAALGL

With `Cc1ccc(-c2cc(-c3nc4ccccc4[nH]3)nc(N)n2)cc1` the MIC [1] was 4 µg/mL (≈ 13.3 µM), the Activity [2] was “Active” and the Activity [3] was “Active”. For the same compound, the MBC [4] was 8 µg/mL (≈ 26.5 µM), the Activity [5] was “Non-Toxic” and the MIC [6] was 4 µg/mL (≈ 13.3 µM). It also gave an MIC [7] of 1 µg/mL (≈ 3.32 µM), an MIC [8] of 4 µg/mL (≈ 13.3 µM) and a KSV [9] of 1.73 ×10⁵ L/mol. The KSV [10] was 1.96 ×10⁵ L/mol, the MIC [11] was 2 µg/mL (≈ 6.64 µM) and the MIC [12] was 2 µg/mL (≈ 6.64 µM). The MIC [13] was 4 µg/mL (≈ 13.3 µM), the MIC [14] was 4 µg/mL (≈ 13.3 µM) and the Ratio [15] was 1. It also gave a K [16] of 1.54 ×10⁴ L/mol, an MIC [17] of 16 µg/mL (≈ 53.1 µM) and an MBC [18] of 8 µg/mL (≈ 26.5 µM). For the same compound, the MBC [19] was 8 µg/mL (≈ 26.5 µM), the MIC [20] was 8 µg/mL (≈ 26.5 µM) and the Activity [21] was “Non-Toxic”. For the same compound, the MIC [22] was 8 µg/mL (≈ 26.5 µM), the MIC [23] was 8 µg/mL (≈ 26.5 µM) and the Activity [24] was “Active”. The KSV [25] was 1.9 ×10⁵ L/mol, the MIC [26] was 8 µg/mL (≈ 26.5 µM) and the Activity [27] was “Active”. The KSV [28] was 39.9 L/mol, the Ratio [29] was 2 and the Activity [30] was “Dose-dependent effect”. For the same compound, the MIC [31] was 1 µg/mL (≈ 3.32 µM) and the MIC [32] was 8 µg/mL (≈ 26.5 µM).
